Reference: patent US20260166039A1 (SCHRÖDINGER, INC., priority 2022, published 2026)

Target: T1, Wee1 kinase domain (Homo sapiens, UniProt P30291)
T1 construct: Wee1 kinase domain was purchased from Carna (catalog #05-177); purchased Carna 05-177
Experiment: Wee1 Kinase Biochemical Assay (ADP-Glo)
Conditions: 1 nM Wee1 enzyme, 15 uM ATP, 4 hours at 25° C
How it was run: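 Compounds tested against 1 nM Wee1 kinase domain in Tris buffer containing 20 mM MgCl2, BSA and 2 mM DTT, with 15 uM ATP and poly(Lys,Tyr) substrate for 4 h at 25 °C. Luminescent ADP detection gave percent inhibition, normalized to DMSO and saturating inhibitor.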

T1 sequence (P30291 299-569 limits assumed): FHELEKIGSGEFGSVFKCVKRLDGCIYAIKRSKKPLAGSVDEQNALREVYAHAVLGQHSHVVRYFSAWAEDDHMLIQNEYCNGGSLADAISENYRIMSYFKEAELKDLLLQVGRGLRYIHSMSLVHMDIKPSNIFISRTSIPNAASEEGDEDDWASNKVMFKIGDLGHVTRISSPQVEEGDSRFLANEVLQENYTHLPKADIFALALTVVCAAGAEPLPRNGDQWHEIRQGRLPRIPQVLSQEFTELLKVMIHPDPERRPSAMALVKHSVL

Structure (SMILES) | IC50 [nM]
CC1(C)C[C@H]2N(c3cccc(N=S(C)(C)=O)n3)c3nc(Nc4ccn(C5CCN(C6COC6)CC5)c(=O)c4)ncc3[C@@]2(C)CO1 (single isomer, unassigned) [Example 824] | < 10

Same assay, conditions: Wee1 kinase domain, 15 uM ATP, ADP-Glo

Structure (SMILES) | IC50 [nM]
CN1CCC[C@H]1c1ccc(Nc2ncc3c(n2)N(c2cccc(N=S(C)(C)=O)n2)[C@H]2CC(C)(C)OC[C@@]32C)cn1 (single isomer, unassigned) [Example 215] | 100 to 1000
CNCc1cccc(N2c3nc(Nc4ccc([C@@H]5CCCO5)cc4)ncc3[C@@]3(C)COC(C)(C)C[C@@H]23)n1 (single isomer, unassigned) [Example 59] | < 10
C[C@H]1COC(=O)N1c1cccc(N2c3nc(Nc4ccc([C@@]5(C)CCN(C)C5)cc4)ncc3[C@]3(C)COC(C)(C)C[C@H]23)n1 (single isomer, unassigned) [Example 348] | 10 to 100
CNCc1cccc(N2c3nc(Nc4ccc([C@@H]5CCC(=O)N5C)nc4)ncc3[C@]3(C)COC(C)(C)C[C@H]23)n1 (single isomer, unassigned) [Example 95] | ≥ 1000
Cc1cc(Nc2ncc3c(n2)N(c2cccc(N4C(=O)OC[C@@H]4C)n2)[C@H]2CC(C)(C)OC[C@@]32C)ccc1[C@@H]1CCNC1 (single isomer, unassigned) [Example 268] | 10 to 100
CN1CC[C@H](n2cc(Nc3ncc4c(n3)N(c3cccc(N=S(C)(C)=O)n3)[C@H]3CC(C)(C)OC[C@@]43C)cn2)C1 (single isomer, unassigned) [Example 197] | 100 to 1000
CNCc1cccc(N2c3nc(Nc4ccc([C@H]5CCC(=O)N5C)nc4)ncc3[C@@]3(C)COC(C)(C)C[C@@H]23)n1 (single isomer, unassigned) [Example 98] | < 10
CN1Cc2cc(Nc3ncc4c(n3)N(c3cccc(N=S(C)(C)=O)n3)[C@H]3CC(C)(C)OC[C@@]43C)ccc2C2(CC2)C1 (single isomer, unassigned) [Example 108] | 10 to 100
CN1CC(c2ccc(Nc3ncc4c(n3)N(c3cccc(N=S(C)(C)=O)n3)[C@H]3CC(C)(C)OC[C@@]43C)cc2)C1 (single isomer, unassigned) [Example 166] | 10 to 100
C[C@H]1COC(=O)N1c1cccc(N2c3nc(Nc4cn(C5CCN(C)CC5)nn4)ncc3[C@]3(C)COC(C)(C)C[C@H]23)n1 (single isomer, unassigned) [Example 252] | 100 to 1000
CC1(C)C[C@@H]2N(c3cccc(N=S(C)(C)=O)n3)c3nc(Nc4cnn(C5CCOCC5)c4)ncc3[C@]2(C)CO1 (single isomer, unassigned) [Example 186] | 100 to 1000
CN1CCc2ccc(Nc3ncc4c(n3)N(c3cccc(N=S(C)(C)=O)n3)[C@H]3CC(C)(C)OC[C@@]43C)cc2C1 (single isomer, unassigned) [Example 110] | 10 to 100
CN[C@@H](Cc1ccc(Nc2ncc3c(n2)N(c2cccc(N4C(=O)OC[C@@H]4C)n2)[C@H]2CC(C)(C)OC[C@@]32C)cc1)C(=O)O (single isomer, unassigned) [Example 320] | 100 to 1000
CNCc1cccc(N2c3nc(Nc4ccc(N5C[C@@H](C)O[C@@H](C)C5)cc4)ncc3[C@]3(C)COC(C)(C)C[C@H]23)n1 [Example 19, (4bS,8aS)-N-(4-((2S,6R)-2,6-dimethylmorpholino)phenyl)-4b,7,7-trimethyl-9-(6-((methylamino)methyl)pyridin-2-yl)-4b,5,7,8,8a,9-hexahydropyrano[3′,4′:4,5]pyrrolo[2,3-d]pyrimidin-2-amine] | 100 to 1000
CN1CC[C@H](c2ccc(Nc3ncc4c(n3)N(c3cccc(N=S(C)(C)=O)n3)[C@H]3CC(C)(C)OC[C@@]43C)cc2)C1 (single isomer, unassigned) [Example 134] | 100 to 1000
CN1C[C@H]2C[C@@H]1CN2c1ccc(Nc2ncc3c(n2)N(c2cccc(N=S(C)(C)=O)n2)[C@H]2CC(C)(C)OC[C@@]32C)cc1 (single isomer, unassigned) [Example 121] | 100 to 1000
C[C@H]1COC(=O)N1c1cccc(N2c3nc(Nc4ccc(O[C@@H]5CCN(C)C5)nc4)ncc3[C@]3(C)COC(C)(C)C[C@H]23)n1 (single isomer, unassigned) [Example 282] | 100 to 1000

Same assay, conditions: class symbols; 1 nM Wee1 enzyme, 15 uM ATP, 4 hours at 25° C.

Structure (SMILES) | IC50 [nM]
CN[C@@]1(C)CCc2ccc(N3c4nc(Nc5ccc(N6CCOCC6)cc5)ncc4[C@@]4(C)COC(C)(C)C[C@@H]34)nc21 (single isomer, unassigned) [Example 571] | < 10
CN1C[C@@H]2CN(c3ccc(Nc4ncc5c(n4)N(c4cccc(C(C)(C)O)n4)[C@H]4CC(C)(C)OC[C@@]54C)cc3)C[C@@H]2C1 (single isomer, unassigned) [Example 445] | 100 to 1000
CN1C[C@@H]2C[C@H]1CN2c1ccc(Nc2ncc3c(n2)N(c2cccc(N4CCCC4=O)n2)[C@H]2CC(C)(C)OC[C@@]32C)cc1 [Example 628, 1-(6-((4bS,8aS)-4b,7,7-trimethyl-2-((4-((1S,4S)-5-methyl-2,5-diazabicyclo[2.2.1]heptan-2-yl)phenyl)amino)-4b,7,8,8a-tetrahydropyrano[3′,4′:4,5]pyrrolo[2,3-d]pyrimidin-9(5H)-yl)pyridin-2-yl)pyrrolidin-2-one] | 100 to 1000
CN1C[C@H]2C[C@@H]1CN2c1ccc(Nc2ncc3c(n2)N(c2cccc(N4C(=O)CCC4(C)C)n2)[C@@H]2CC(C)(C)OC[C@]32C)cc1 [Example 797, 5,5-dimethyl-1-(6-((4bR,8aR)-4b,7,7-trimethyl-2-((4-((1R,4R)-5-methyl-2,5-diazabicyclo[2.2.1]heptan-2-yl)phenyl)amino)-4b,7,8,8a-tetrahydropyrano[3′,4′:4,5]pyrrolo[2,3-d]pyrimidin-9(5H)-yl)pyridin-2-yl)pyrrolidin-2-one] | < 10
CN1CCN(c2ccc(Nc3ncc4c(n3)N(c3cccc(N=S(C)(C)=O)n3)[C@@H]3CC(C)(C)OC[C@]43C)nc2)CC1 (single isomer, unassigned) [Example 510] | < 10
CC1(C)C[C@@H]2N(c3ccc4c(n3)CCNC4)c3nc(Nc4ccc(N5CCOCC5)cc4)ncc3[C@]2(C)CO1 (single isomer, unassigned) [Example 561] | ≥ 1000
CN1CCC(n2cc(Nc3ncc4c(n3)N(c3cccc(N=S(C)(C)=O)c3)[C@H]3CC(C)(C)OC[C@@]43C)cn2)CC1 [Example 715, dimethyl((3-((4bS,8aS)-4b,7,7-trimethyl-2-((1-(1-methylpiperidin-4-yl)-1H-pyrazol-4-yl)amino)-4b,7,8,8a-tetrahydropyrano[3′,4′:4,5]pyrrolo[2,3-d]pyrimidin-9(5H)-yl)phenyl)imino)-16-sulfanone] | 100 to 1000
CN1CC2(C1)CN(c1ccc(Nc3ncc4c(n3)N(c3cccc(N5CCOC5=O)n3)[C@H]3CC(C)(C)OC[C@@]43C)cc1)C2 [Example 708, 3-(6-((4bS,8aS)-4b,7,7-trimethyl-2-((4-(6-methyl-2,6-diazaspiro[3.3]heptan-2-yl)phenyl)amino)-4b,7,8,8a-tetrahydropyrano[3′,4′:4,5]pyrrolo[2,3-d]pyrimidin-9(5H)-yl)pyridin-2-yl)oxazolidin-2-one] | 10 to 100
CC1(C)C[C@H]2N(c3cccc(N4CCOC4=O)n3)c3nc(Nc4ccc(N5CCNCC5)cc4)ncc3[C@@]2(C)CO1 (single isomer, unassigned) [Example 601] | < 10
CC1(C)C[C@@H]2N(c3cccc(N4CCCC4=O)n3)c3nc(Nc4ccc(O[C@@H]5CCNC5)cc4)ncc3[C@]2(C)CO1 [Example 617, 1-(6-((4bS,8aS)-4b,7,7-trimethyl-2-((4-(((R)-pyrrolidin-3-yl)oxy)phenyl)amino)-4b,7,8,8a-tetrahydropyrano[3′,4′:4,5]pyrrolo[2,3-d]pyrimidin-9(5H)-yl)pyridin-2-yl)pyrrolidin-2-one] | 100 to 1000
CN1C[C@@H]2C[C@H]1CN2c1ccc(Nc2ncc3c(n2)N(c2cccc(N4CCOC4=O)n2)[C@H]2CC(C)(C)OC[C@@]32C)cc1 (single isomer, unassigned) [Example 594] | 100 to 1000
CC1(C)C[C@@H]2N(c3cccc(C4(F)CNC4)n3)c3nc(Nc4ccc(N5CCOCC5)cc4)ncc3[C@]2(C)CO1 (single isomer, unassigned) [Example 546] | 100 to 1000
CN1CC[C@H](Oc2ccc(Nc3ncc4c(n3)N(c3cccc(N5CCCC5=O)n3)[C@H]3CC(C)(C)OC[C@@]43C)cc2)C1 [Example 619, 1-(6-((4bS,8aS)-4b,7,7-trimethyl-2-((4-(((S)-1-methylpyrrolidin-3-yl)oxy)phenyl)amino)-4b,7,8,8a-tetrahydropyrano[3′,4′:4,5]pyrrolo[2,3-d]pyrimidin-9(5H)-yl)pyridin-2-yl)pyrrolidin-2-one] | 10 to 100
CNCc1cccc(N2c3nc(Nc4ccn(C)c(=O)c4)ncc3[C@]3(C)COC(C)(C)C[C@H]23)n1 (single isomer, unassigned) [Example 455] | ≥ 1000
CNCc1cccc(N2c3nc(Nc4ccc(=O)n(C)c4)ncc3[C@@]3(C)COC(C)(C)C[C@@H]23)n1 (single isomer, unassigned) [Example 462] | 10 to 100
C[C@H]1CCC(=O)N1c1cccc(N2c3nc(Nc4ccc(N5C[C@@H]6C[C@H]5CN6C)cc4)ncc3[C@]3(C)COC(C)(C)C[C@H]23)n1 [Example 650, (S)-5-methyl-1-(6-((4bS,8aS)-4b,7,7-trimethyl-2-((4-((1S,4S)-5-methyl-2,5-diazabicyclo[2.2.1]heptan-2-yl)phenyl)amino)-4b,7,8,8a-tetrahydropyrano[3′,4′:4,5]pyrrolo[2,3-d]pyrimidin-9(5H)-yl)pyridin-2-yl)pyrrolidin-2-one] | 10 to 100
CNCc1cccc(N2c3nc(Nc4ccc(-n5ccnc5)nc4)ncc3[C@]3(C)COC(C)(C)C[C@H]23)n1 (single isomer, unassigned) [Example 467] | ≥ 1000
